In ChEMBL document CHEMBL4052759, “Discovery of DS79182026: A potent orally active hepcidin production inhibitor” (Bioorg Med Chem Lett, 2017):
Each block holds one compound with its values, some of them ahead of it.

Experiments:
[1] = target: Proto-oncogene tyrosine-protein kinase Src (Homo sapiens) (UniProt P12931); test: Inhibition of SRC (unknown origin) at 0.078 uM relative to control
[2] = target: Receptor-type tyrosine-protein kinase FLT3 (Homo sapiens) (UniProt P36888); test: Inhibition of FLT3 (unknown origin) at 0.078 uM relative to control
[3] = target: Ribosomal protein S6 kinase alpha-5 (Homo sapiens) (UniProt O75582); test: Inhibition of MSK1 (unknown origin) at 0.078 uM relative to control
[4] = target: Calcium/calmodulin-dependent protein kinase type II subunit beta (Homo sapiens) (UniProt Q13554); test: Inhibition of CAMK2 (unknown origin) at 0.078 uM relative to control
[5] = target: Tyrosine-protein kinase SYK (Homo sapiens) (UniProt P43405); test: Inhibition of SYK (unknown origin) at 0.078 uM relative to control
[6] = target: Dual specificity tyrosine-phosphorylation-regulated kinase 1A (Homo sapiens) (UniProt Q13627); test: Inhibition of DYRK1a (unknown origin) at 0.078 uM relative to control
[7] = target: Tyrosine-protein kinase receptor UFO (Homo sapiens) (UniProt P30530); test: Inhibition of AXL (unknown origin) at 0.45 uM relative to control
[8] = target: Mast/stem cell growth factor receptor Kit (Homo sapiens) (UniProt P10721); test: Inhibition of KIT (unknown origin) at 0.45 uM relative to control
[9] = target: ALK tyrosine kinase receptor (Homo sapiens) (UniProt Q9UM73); test: Inhibition of ALK (unknown origin) at 0.45 uM relative to control
[10] = target: Dual specificity tyrosine-phosphorylation-regulated kinase 1A (Homo sapiens) (UniProt Q13627); test: Inhibition of DYRK1a (unknown origin) at 0.45 uM relative to control
[11] = target: Serine/threonine-protein kinase D1 (Homo sapiens) (UniProt Q15139); test: Inhibition of PKD1 (unknown origin) at 0.45 uM relative to control
[12] = target: Calcium/calmodulin-dependent protein kinase type II subunit beta (Homo sapiens) (UniProt Q13554); test: Inhibition of CAMK2 (unknown origin) at 0.45 uM relative to control
[13] = target: Aurora kinase B (Homo sapiens) (UniProt Q96GD4); test: Inhibition of AurB (unknown origin) at 0.45 uM relative to control
[14] = target: Tyrosine-protein kinase Yes (Homo sapiens) (UniProt P07947); test: Inhibition of Yes (unknown origin) at 0.45 uM relative to control
[15] = target: Casein kinase I isoform gamma-3 (Homo sapiens) (UniProt Q9Y6M4); test: Inhibition of CSNK1G3 (unknown origin) at 0.45 uM relative to control
[16] = test system: Epidermal growth factor receptor (Homo sapiens), P00533 [T790M]; test: Inhibition of EGFR T790M mutant (unknown origin) at 0.45 uM relative to control
[17] = target: Serine/threonine-protein kinase pim-1 (Homo sapiens) (UniProt P11309); test: Inhibition of PIM1 (unknown origin) at 0.45 uM relative to control
[18] = target: Ephrin type-A receptor 4 (Homo sapiens) (UniProt P54764); test: Inhibition of EPHA4 (unknown origin) at 0.45 uM relative to control
[19] = target: Mitogen-activated protein kinase 14 (Homo sapiens) (UniProt Q16539); test: Inhibition of p38a (unknown origin) at 0.45 uM relative to control
[20] = target: Dual specificity tyrosine-phosphorylation-regulated kinase 3 (Homo sapiens) (UniProt O43781); test: Inhibition of DYRK3 (unknown origin) at 0.45 uM relative to control
[21] = target: Homeodomain-interacting protein kinase 3 (Homo sapiens) (UniProt Q9H422); test: Inhibition of HIPK3 (unknown origin) at 0.45 uM relative to control
[22] = target: AMP-activated protein kinase, AMPK (Homo sapiens) (UniProt P54646+O43741+P54619+Q9UGJ0+Q9Y478+Q13131+Q9UGI9); test: Inhibition of AMPK (unknown origin) at 0.45 uM relative to control
[23] = target: Serine/threonine-protein kinase MARK1 (Homo sapiens) (UniProt Q9P0L2); test: Inhibition of MARK1 (unknown origin) at 0.45 uM relative to control
[24] = target: Cyclin-dependent kinase 2 (Homo sapiens) (UniProt P24941); test: Inhibition of CDK2 (unknown origin) at 0.45 uM relative to control
[25] = target: Casein kinase I isoform gamma-1 (Homo sapiens) (UniProt Q9HCP0); test: Inhibition of CK1-gamma1 (unknown origin) at 0.45 uM relative to control
[26] = target: Ribosomal protein S6 kinase alpha-1 (Homo sapiens) (UniProt Q15418); test: Inhibition of RSK1 (unknown origin) at 0.45 uM relative to control
[27] = target: Tyrosine-protein kinase receptor TYRO3 (Homo sapiens) (UniProt Q06418); test: Inhibition of TYRO3 (unknown origin) at 0.45 uM relative to control
[28] = target: Macrophage-stimulating protein receptor (Homo sapiens) (UniProt Q04912); test: Inhibition of MST1R (unknown origin) at 0.49 uM relative to control
[29] = target: Serine/threonine-protein kinase 25 (Homo sapiens) (UniProt O00506); test: Inhibition of YSK (unknown origin) at 0.49 uM relative to control
[30] = target: Protein kinase C eta type (Homo sapiens) (UniProt P24723); test: Inhibition of PKC-eta (unknown origin) at 0.49 uM relative to control
[31] = target: Tyrosine-protein kinase BTK (Homo sapiens) (UniProt Q06187); test: Inhibition of BTK (unknown origin) at 0.49 uM relative to control
[32] = target: Inhibitor of nuclear factor kappa-B kinase subunit beta (Homo sapiens) (UniProt O14920); test: Inhibition of IKK-beta (unknown origin) at 0.49 uM relative to control
[33] = target: Mitogen-activated protein kinase 13 (Homo sapiens) (UniProt O15264); test: Inhibition of p38-delta (unknown origin) at 0.49 uM relative to control
[34] = target: Calcium/calmodulin-dependent protein kinase type II subunit beta (Homo sapiens) (UniProt Q13554); test: Inhibition of CaMK2-beta (unknown origin) at 0.49 uM relative to control
[35] = target: Hepatocyte growth factor receptor (Homo sapiens) (UniProt P08581); test: Inhibition of MET (unknown origin) at 0.49 uM relative to control
[36] = target: Protein kinase C beta type (Homo sapiens) (UniProt P05771); test: Inhibition of PKC-beta2 (unknown origin) at 0.49 uM relative to control
[37] = target: Casein kinase I isoform gamma-3 (Homo sapiens) (UniProt Q9Y6M4); test: Inhibition of CSNK1G3 (unknown origin) at 0.49 uM relative to control
[38] = target: MAP kinase-activated protein kinase 3 (Homo sapiens) (UniProt Q16644); test: Inhibition of MAPKAPK3 (unknown origin) at 0.49 uM relative to control
[39] = target: Ephrin type-B receptor 1 (Homo sapiens) (UniProt P54762); test: Inhibition of EPHB1 (unknown origin) at 0.49 uM relative to control

inhibition [1]: 2.3%
inhibition [2]: -0.3%
inhibition [3]: -5.7%
inhibition [4]: 3.7%
inhibition [5]: 0%
inhibition [6]: 9.7%
SMILES: COC(=O)Nc1noc2cc(-c3c(-c4ccccn4)n[nH]c3C)ccc12

inhibition [7]: 0.3%
inhibition [8]: 24.7%
inhibition [9]: 26%
inhibition [10]: 6.3%
inhibition [11]: 1.3%
inhibition [12]: 19.7%
inhibition [13]: 11%
inhibition [14]: 49%
inhibition [15]: -0.7%
inhibition [16]: 0.7%
inhibition [17]: 4%
inhibition [18]: 0.7%
inhibition [19]: 1.7%
inhibition [20]: 2%
inhibition [21]: 2.7%
inhibition [22]: 26%
inhibition [23]: 36.7%
inhibition [24]: 6%
inhibition [25]: 5%
inhibition [26]: 27.3%
inhibition [27]: 13.3%
SMILES: Cc1n[nH]c(C)c1-c1ccc2c(NC(=O)c3ccc(N4CCN(C)CC4)cc3)n[nH]c2c1

inhibition [28]: -3%
inhibition [29]: 4.3%
inhibition [30]: 7%
inhibition [31]: 0.3%
inhibition [32]: 2.3%
inhibition [33]: 4.3%
inhibition [34]: 2.3%
inhibition [35]: 7.3%
inhibition [36]: 5.3%
inhibition [37]: 2.3%
inhibition [38]: -7.3%
inhibition [39]: 1.3%
SMILES: Cc1[nH]nc(C2CC2)c1-c1ccc2c(NC(=O)C3CC3)noc2c1
